# According to EP1075186B1, “METHOD OF HSV PROPHYLAXIS” (The Children's Hospital Research Foundation, priority 1998, dated 1999):
# Key:
# [1] = system: human foreskin fibroblast (HFF) cell monolayers; assay: Toxicity effects controls (sham-inoculated compound treated HFF monolayers); format: cell-based; details: for TOXICITY EFFECTS CONTROL: Experiment 4, Table 10
# Text: Sham-incolulated, non-treated HFF cell monolayers were included along with the drug-treated monolayers as "cell monolayer controls". • 1. HSV-1 inoculated, non-compound treated HFF monolayers were included as "positive controls"; and • 2.
# In the tables, the symbols have the meaning indicated: + = toxic; - = no toxicity; +/- = mild toxicity; ND = not done; T = toxicity effects interfered with CPE rating; CPE = cytopathic effect.
# [2] = system: VZV; assay: In vitro assay with VZV on HFF cell monolayers; format: cell-based; details: Example 2, Table 17, 0.1 mg/ml, footnote: this toxicity observation is questionable
# Method: VZV was grown to a CPE level […] of 3-4 + on HFF cell monolayers. The VZV was scraped from the flask, centrifuged and the cell pellet was resuspended in 10 ml of complete medium. 100 to 200 µl of the VZV cell associated inoculum was inoculated onto confluent HFF cell monolayers by absorption for 60 minutes at 37°C. After absorption of the virus, the inoculum was aspirated from the cell monolayers.
# The VZV-infected monolayers were rehydrated with medium containing the appropriate concentrations of compounds to be tested. All monolayers were incubated at 37°C. Development of VZV cytopathology was monitored daily for 7 days by inverted light microscopy. Titers were calculated by multiple regression analysis.
# [3] = system: HSV-2 strain 186; assay: Mouse genital HSV-2 model, intravaginal prophylaxis; format: in vivo, Swiss Webster mice
# Method: Sixty female Swiss Webster mice pretreated with medroxyprogesterone acetate were randomized to four groups of 15 to receive either Saline (control), 2 % Acyclovir, 2 % Compound 96, or 0.5% Compound 96. Animals were anesthetized by intraperitoneal injection of sodium pentabarbital and then administered 15 µl of control or test compound intravaginally in one treatment. They were then immediately challenged by intravaginal instillation with 15 µl of a suspension containing 10^4 plaque forming units HSV-2 strain 186. Vaginal swabs were collected on days 1 and 2 post-inoculation (PI) to assess the effect of treatment on vaginal replication in the genital tract. In addition, all animals were examined daily until day 21 PI for mortality and signs of infection (erythema, hair loss and hind limb paralysis).
# [4] = system: HSV-2 strain 186; assay: as above; format: in vivo, Swiss Webster mice; details: repeat study
# [5] = Experiment 2, Table 4, 0.001 mg/ml, 24 h PI
# [6] = Experiment 2, Table 4, 0.001 mg/ml, 48 h PI
# [7] = Experiment 2, Table 4, 0.01 mg/ml, 24 h PI
# [8] = Experiment 2, Table 4, 0.01 mg/ml, 48 h PI
# [9] = Experiment 2, Table 4, 0.1 mg/ml, 24 h PI
# [10] = Experiment 2, Table 4, 0.1 mg/ml, 48 h PI
# [11] = Experiment 2, Table 4, 1 mg/ml, 24 h PI
# [12] = Experiment 2, Table 4, 1 mg/ml, 48 h PI
# [13] = Experiment 5, Table 12, 48 Hours Post Incubation, 0.001 mg/ml
# [14] = Experiment 5, Table 12, 48 Hours Post Incubation, 0.01 mg/ml
# [15] = Experiment 5, Table 12, 48 Hours Post Incubation, 1 mg/ml
# [16] = Experiment 5, Table 12, 48 Hours Post Incubation, 2 mg/ml
# [17] = Experiment 5, Table 12, 48 Hours Post Incubation, 5 mg/ml
compound,measurement,setting,value
"CC1=CC(C)=[N+]2CC[N+]3=C(C)C=C(C)[O][Co-3]23([NH2])([NH3+])[O]1 [Compound 23, reference compound]",TOXICITY EFFECTS CONTROLS,[1]; [5],-
same,TOXICITY EFFECTS CONTROLS,[1]; [6],-
same,TOXICITY EFFECTS CONTROLS,[1]; [7],-
same,TOXICITY EFFECTS CONTROLS,[1]; [8],-
same,TOXICITY EFFECTS CONTROLS,[1]; [9],-
same,TOXICITY EFFECTS CONTROLS,[1]; [10],-
same,TOXICITY EFFECTS CONTROLS,[1]; [11],+/-
same,TOXICITY EFFECTS CONTROLS,[1]; [12],+/-
same,TOXICITY EFFECTS CONTROLS,[1]; [13],-
same,TOXICITY EFFECTS CONTROLS,[1]; [14],-
same,TOXICITY EFFECTS CONTROLS,"[1]; Experiment 5, Table 12, 48 Hours Post Incubation, 0.1 mg/ml",-
same,TOXICITY EFFECTS CONTROLS,"[1]; Experiment 5, Table 12, 48 Hours Post Incubation, 0.5 mg/ml",-
same,TOXICITY EFFECTS CONTROLS,[1]; [15],-
same,TOXICITY EFFECTS CONTROLS,[1]; [16],+/-
same,TOXICITY EFFECTS CONTROLS,[1]; [17],+/-
same,VIRUCIDAL EFFICACY 7 Days Post Inoculation Efficacy,[2],T?
CC1=CC(C)=[N+]2CC[N+]3=C(C)C=C(C)[O][Co-3]23([n+]2cc[nH]c2C)([n+]2cc[nH]c2C)[O]1 [Compound 96],TOXICITY EFFECTS CONTROLS,"[1]; Experiment 1, Table 1, 0.001 mg/ml, 24 h",-
same,TOXICITY EFFECTS CONTROLS,"[1]; Experiment 1, Table 1, 0.001 mg/ml, 48 h",-
same,TOXICITY EFFECTS CONTROLS,"[1]; Experiment 1, Table 1, 0.01 mg/ml, 24 h",-
same,TOXICITY EFFECTS CONTROLS,"[1]; Experiment 1, Table 1, 0.01 mg/ml, 48 h",-
same,TOXICITY EFFECTS CONTROLS,"[1]; Experiment 1, Table 1, 0.1 mg/ml, 24 h",-
same,TOXICITY EFFECTS CONTROLS,"[1]; Experiment 1, Table 1, 0.1 mg/ml, 48 h",-
same,TOXICITY EFFECTS CONTROLS,"[1]; Experiment 1, Table 1, 1 mg/ml, 24 h",-
same,TOXICITY EFFECTS CONTROLS,"[1]; Experiment 1, Table 1, 1 mg/ml, 48 h",-
same,toxicity,"[1]; Experiment 1, 1 mg/ml",lack of toxicity
same,TOXICITY EFFECTS CONTROLS,[1]; [5],-
same,TOXICITY EFFECTS CONTROLS,[1]; [6],-
same,TOXICITY EFFECTS CONTROLS,[1]; [7],-
same,TOXICITY EFFECTS CONTROLS,[1]; [8],-
same,TOXICITY EFFECTS CONTROLS,[1]; [9],-
same,TOXICITY EFFECTS CONTROLS,[1]; [10],-
same,TOXICITY EFFECTS CONTROLS,[1]; [11],-
same,TOXICITY EFFECTS CONTROLS,[1]; [12],-
same,TOXICITY EFFECTS CONTROLS,"[1]; Experiment 3, Table 7, 0.001 mg/ml, 24 hrs post incubation",-
same,TOXICITY EFFECTS CONTROLS,"[1]; Experiment 3, Table 7, 0.001 mg/ml, 48 hrs post incubation",-
same,TOXICITY EFFECTS CONTROLS,"[1]; Experiment 3, Table 7, 0.01 mg/ml, 24 hrs post incubation",-
same,TOXICITY EFFECTS CONTROLS,"[1]; Experiment 3, Table 7, 0.01 mg/ml, 48 hrs post incubation",-
same,TOXICITY EFFECTS CONTROLS,"[1]; Experiment 3, Table 7, 0.1 mg/ml, 24 hrs post incubation",+/-
same,TOXICITY EFFECTS CONTROLS,"[1]; Experiment 3, Table 7, 0.1 mg/ml, 48 hrs post incubation",+/-
same,TOXICITY EFFECTS CONTROLS,"[1]; Experiment 3, Table 7, 0.5 mg/ml, 24 hrs post incubation",-
same,TOXICITY EFFECTS CONTROLS,"[1]; Experiment 3, Table 7, 0.5 mg/ml, 48 hrs post incubation",-
same,TOXICITY EFFECTS CONTROLS,"[1]; Experiment 3, Table 7, 1 mg/ml, 24 hrs post incubation",-
same,TOXICITY EFFECTS CONTROLS,"[1]; Experiment 3, Table 7, 1 mg/ml, 48 hrs post incubation",+/-
same,TOXICITY EFFECTS CONTROLS,"[1]; Experiment 3, Table 7, 5 mg/ml, 24 hrs post incubation",+/-
same,TOXICITY EFFECTS CONTROLS,"[1]; Experiment 3, Table 7, 5 mg/ml, 48 hrs post incubation",+/-
same,TOXICITY EFFECTS CONTROL,"[1]; 0.001 mg/ml, 24 hrs post incubation",-
same,TOXICITY EFFECTS CONTROL,"[1]; 0.001 mg/ml, 48 hrs post incubation",-
same,TOXICITY EFFECTS CONTROL,"[1]; 0.01 mg/ml, 24 hrs post incubation",-
same,TOXICITY EFFECTS CONTROL,"[1]; 0.01 mg/ml, 48 hrs post incubation",-
same,TOXICITY EFFECTS CONTROL,"[1]; 0.1 mg/ml, 24 hrs post incubation",+/-
same,TOXICITY EFFECTS CONTROL,"[1]; 0.1 mg/ml, 48 hrs post incubation",+/-
same,TOXICITY EFFECTS CONTROL,"[1]; 0.5 mg/ml, 24 hrs post incubation",-
same,TOXICITY EFFECTS CONTROL,"[1]; 0.5 mg/ml, 48 hrs post incubation",-
same,TOXICITY EFFECTS CONTROL,"[1]; 1 mg/ml, 24 hrs post incubation",+/-
same,TOXICITY EFFECTS CONTROL,"[1]; 1 mg/ml, 48 hrs post incubation",+/-
same,TOXICITY EFFECTS CONTROL,"[1]; 5 mg/ml, 24 hrs post incubation",+/-
same,TOXICITY EFFECTS CONTROL,"[1]; 5 mg/ml, 48 hrs post incubation",+
same,TOXICITY EFFECTS CONTROLS,[1]; [13],-
same,TOXICITY EFFECTS CONTROLS,[1]; [14],-
same,TOXICITY EFFECTS CONTROLS,[1]; [15],-
same,TOXICITY EFFECTS CONTROLS,[1]; [16],+/-
same,TOXICITY EFFECTS CONTROLS,[1]; [17],+/-
same,toxicity,"[1]; Experiment 5, cell rounding, detaching from the monolayer, increased granularity, loss of normal morphology",more pronounced in the 0.5 and the 0.1 mg/ml concentrations
same,VIRUCIDAL EFFICACY 7 Days Post Inoculation Efficacy,[2],T?
same,signs of genital disease,"[3]; 2 % and 0.5% groups, 15 mice each",none of these animals developed any signs of genital disease
same,mortality,"[3]; 2 % and 0.5% groups, 15 mice each, to day 21 PI",all lived
same,vaginal herpes infection,[3]; topical (intravaginal) application before HSV-2 challenge,completely blocked
same,virus in the genital tract,[3]; vaginal swabs on day 1 or 2 PI,no detectable virus
same,protection from visible infection and death,[4]; concentrations of 0.1 % or more,completely protected
same,animals protected from death,[4]; lowest concentration of 0.01 %,6 of 10
